Test results reported in the NIST ThermoML archive (doi:10.1016/j.jct.2012.11.011).
Numbers after ± are expanded uncertainties.

Assay: xn = mol fraction of the nth substance listed
Settings: Liquid, Vibrating tube method

CCOC(=O)OCC [diethyl carbonate] + CCCCCCCCCC
mass density [kg/m3]
Settings	x1 = 0.0538	x1 = 0.1716	x1 = 0.2151	x1 = 0.3257	x1 = 0.5032	x1 = 0.5482	x1 = 0.7985	x1 = 0.8989	x1 = 0.9487
288.15 K, 100 kPa	740.8 ± 0.3	759.4 ± 0.3	766.3 ± 0.3	786.5 ± 0.3	821.3 ± 0.3	832.2 ± 0.3	903.2 ± 0.3	937.5 ± 0.3	956.9 ± 0.3
288.15 K, 5000 kPa	744.5 ± 0.3	763.3 ± 0.3	770.2 ± 0.3	790.5 ± 0.3	826.7 ± 0.3	836.6 ± 0.3	907.4 ± 0.3	943.6 ± 0.3	963 ± 0.3
288.15 K, 10000 kPa	748 ± 0.4	766.8 ± 0.4	773.7 ± 0.4	794.3 ± 0.3	830.7 ± 0.3	840.6 ± 0.3	911.5 ± 0.3	947.7 ± 0.3	967.1 ± 0.3
288.15 K, 20000 kPa	754.6 ± 0.4	773.6 ± 0.4	780.5 ± 0.4	801.2 ± 0.4	837.8 ± 0.4	847.8 ± 0.3	919 ± 0.3	955.4 ± 0.3	974.8 ± 0.3
288.15 K, 30000 kPa	760.6 ± 0.5	780.9 ± 0.5	786.9 ± 0.5	807.5 ± 0.4	844.6 ± 0.4	854.5 ± 0.4	926 ± 0.3	962.6 ± 0.3	981.9 ± 0.3
288.15 K, 40000 kPa	766.4 ± 0.6	785.6 ± 0.6	792.8 ± 0.5	813.8 ± 0.5	850.9 ± 0.4	860.9 ± 0.4	932.8 ± 0.3	969.5 ± 0.3	988.9 ± 0.3
298.15 K, 100 kPa	733.1 ± 0.3	751.2 ± 0.3	758 ± 0.3	777.9 ± 0.3	813.5 ± 0.3	823.1 ± 0.3	892.8 ± 0.3	928.3 ± 0.3	947.6 ± 0.3
298.15 K, 5000 kPa	737.6 ± 0.3	755.8 ± 0.3	762.6 ± 0.3	782.6 ± 0.3	818.2 ± 0.3	827.8 ± 0.3	897.7 ± 0.3	933.5 ± 0.3	952.7 ± 0.3
298.15 K, 10000 kPa	740.7 ± 0.4	759.1 ± 0.4	766 ± 0.4	786.1 ± 0.3	821.9 ± 0.3	831.7 ± 0.3	901.5 ± 0.3	937.5 ± 0.3	956.6 ± 0.3
298.15 K, 20000 kPa	747.7 ± 0.4	766.2 ± 0.4	773.1 ± 0.4	793.5 ± 0.4	829.7 ± 0.4	839.4 ± 0.3	909.6 ± 0.3	945.7 ± 0.3	964.8 ± 0.3
298.15 K, 30000 kPa	753.9 ± 0.5	772.6 ± 0.5	779.8 ± 0.5	800.2 ± 0.5	836.7 ± 0.4	846.5 ± 0.4	917.1 ± 0.3	953.2 ± 0.3	972.2 ± 0.3
298.15 K, 40000 kPa	759.8 ± 0.6	778.7 ± 0.6	785.8 ± 0.6	806.5 ± 0.5	843.3 ± 0.4	853.1 ± 0.4	924.1 ± 0.3	960.2 ± 0.3	979.3 ± 0.3
308.15 K, 100 kPa	725.5 ± 0.3	743.2 ± 0.3	749.9 ± 0.3	769.4 ± 0.3	804.4 ± 0.3	813.9 ± 0.3	882.5 ± 0.3	917.7 ± 0.3	936.6 ± 0.3
308.15 K, 5000 kPa	729.6 ± 0.3	747.5 ± 0.3	754.3 ± 0.3	773.9 ± 0.3	809 ± 0.3	818.4 ± 0.3	887.3 ± 0.3	922.6 ± 0.3	941.5 ± 0.3
308.15 K, 10000 kPa	733.6 ± 0.4	751.6 ± 0.4	758.4 ± 0.4	778.1 ± 0.3	813.5 ± 0.3	823 ± 0.3	892 ± 0.3	927.1 ± 0.3	946.2 ± 0.3
308.15 K, 20000 kPa	740.7 ± 0.5	758.9 ± 0.4	765.9 ± 0.4	785.9 ± 0.4	821.4 ± 0.4	831 ± 0.4	900.5 ± 0.3	935.7 ± 0.3	954.6 ± 0.3
308.15 K, 30000 kPa	747.5 ± 0.5	765.8 ± 0.5	772.7 ± 0.5	792.9 ± 0.5	828.9 ± 0.4	838.4 ± 0.4	908.2 ± 0.3	943.8 ± 0.3	962.7 ± 0.3
308.15 K, 40000 kPa	753.6 ± 0.6	772.1 ± 0.6	779.1 ± 0.6	799.4 ± 0.5	835.8 ± 0.4	845.3 ± 0.4	915.6 ± 0.3	951.2 ± 0.3	970.2 ± 0.3
